Data reported in ChEMBL document CHEMBL1151086, “Sulfobetaine zwitterionic inhibitors of squalene synthase” (Bioorg Med Chem Lett, 1996).

What follows are compounds tested against T1, Squalene synthase (Rattus norvegicus, UniProt Q02769) (assay: Compound was evaluated for its inhibitory activity against rat hepatic squalene synthase at a concentration of 1000 uM; NI = No inhibition).
T1 sequence (Q02769 whole entry): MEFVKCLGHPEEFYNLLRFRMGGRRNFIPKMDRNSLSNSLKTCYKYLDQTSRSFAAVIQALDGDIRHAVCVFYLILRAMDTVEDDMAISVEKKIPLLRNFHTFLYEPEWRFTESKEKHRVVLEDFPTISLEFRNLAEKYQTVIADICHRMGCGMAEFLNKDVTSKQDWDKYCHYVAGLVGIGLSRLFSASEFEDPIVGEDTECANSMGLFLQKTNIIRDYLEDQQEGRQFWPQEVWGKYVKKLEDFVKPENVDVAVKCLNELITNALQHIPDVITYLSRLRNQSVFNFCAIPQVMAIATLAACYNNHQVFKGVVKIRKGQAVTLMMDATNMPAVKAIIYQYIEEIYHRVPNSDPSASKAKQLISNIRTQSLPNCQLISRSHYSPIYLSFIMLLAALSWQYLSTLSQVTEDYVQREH

**Q.** Which IC50 does the source give for `C[N+](C)(CCCCS(=O)(=O)[O-])Cc1ccccc1` here?
**A.** Not Active

**Q.** For `C[N+](C)(CCCCS(=O)(=O)[O-])CCc1ccccc1`, which IC50 is on record?
**A.** Not Active

Each compound was assayed against T1, Squalene synthase (assay: Inhibitory activity against rat hepatic squalene synthase).

**Q.** With `C[N+](C)(CCCCCc1ccc(-c2ccccc2)cc1)CCCCS(=O)(=O)[O-]` as the compound, how does the IC50 read?
**A.** 5 µM

**Q.** With `C[N+](C)(CCCCc1ccc(-c2ccccc2)cc1)CCCCS(=O)(=O)[O-]` as the compound, how does the IC50 read?
**A.** 25 µM

**Q.** For `C[N+](C)(CCCCCCc1ccc(-c2ccccc2)cc1)CCCCS(=O)(=O)[O-]`, which IC50 is on record?
**A.** 60 µM

**Q.** For `C[N+](C)(CCCCCCCCCc1ccccc1)CCCCS(=O)(=O)[O-]`, which IC50 is on record?
**A.** 2 µM

**Q.** With `CC(C)=CCC/C(C)=C/CC/C(C)=C/C[N+](C)(C)CCCCS(=O)(=O)[O-]` as the compound, how does the IC50 read?
**A.** 15 µM

**Q.** With `C[N+](C)(CCCCCCCCCCc1ccccc1)CCCCS(=O)(=O)[O-]` as the compound, how does the IC50 read?
**A.** 6 µM

**Q.** How did the IC50 turn out when `C[N+](C)(CCCCCCc1ccccc1)CCCCS(=O)(=O)[O-]` was run?
**A.** 100 µM

**Q.** `C[N+](C)(CCCCCCCCc1ccccc1)CCCCS(=O)(=O)[O-]` was tested. Which IC50 did it give?
**A.** 8 µM
